Results as given in the supplement of paper PMC10307832.

Tests used:
Test in all cases: relative viability (nuclei count vs DMSO), 5 days (fraction); higher = more cells survive
Bleomycin + Pemetrexed = compound: CC1=C(N=C(N=C1N)[C@H](CC(=O)N)NC[C@@H](C(=O)N)N)C(=O)N[C@@H]([C@H](C2=CN=CN2)OC3C(C(C(C(O3)CO)O)O)OC4C(C(C(C(O4)CO)O)OC(=O)N)O)C(=O)N[C@H](C)[C@H]([C@H](C)C(=O)N[C@@H]([C@@H](C)O)C(=O)NCCC5=NC(=CS5)C6=NC(=CS6)C(=O)NCCC[S+](C)C)O [Bleomycin] + Nc1nc2[nH]cc(CCc3ccc(C(=O)N[C@@H](CCC(=O)O)C(=O)O)cc3)c2c(=O)[nH]1 [Pemetrexed] (partner 0.2 µM); details: main component drawn
In short: (§1)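 Cells from lung cancer lines were seeded into 1536-well plates and, one day later, dosed by pin tool. Treatments were either a single drug or a fixed dose of an anchor drug with five library-drug doses (not always all listed) in √10 steps. After 5 days, nuclei were stained in a one-step fixation (final 0.05% Triton X-100, 1% formaldehyde, 1 ug/ml Hoechst) and counted on 4× images, and relative viability is the treated-to-vehicle nuclei ratio, as the median of duplicate plates.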

Bleomycin + Luminespib = compound: CC1=C(N=C(N=C1N)[C@H](CC(=O)N)NC[C@@H](C(=O)N)N)C(=O)N[C@@H]([C@H](C2=CN=CN2)OC3C(C(C(C(O3)CO)O)O)OC4C(C(C(C(O4)CO)O)OC(=O)N)O)C(=O)N[C@H](C)[C@H]([C@H](C)C(=O)N[C@@H]([C@@H](C)O)C(=O)NCCC5=NC(=CS5)C6=NC(=CS6)C(=O)NCCC[S+](C)C)O [Bleomycin] + CCNC(=O)c1noc(-c2cc(C(C)C)c(O)cc2O)c1-c1ccc(CN2CCOCC2)cc1 [Luminespib] (partner 0.01 µM); details: main component drawn
In short: as §1

Etoposide + Tozasertib = compound: COc1cc([C@@H]2c3cc4c(cc3[C@@H](O[C@@H]3O[C@@H]5CO[C@@H](C)O[C@H]5[C@H](O)[C@H]3O)[C@H]3COC(=O)[C@H]23)OCO4)cc(OC)c1O [Etoposide] + Cc1cc(Nc2cc(N3CCN(C)CC3)nc(Sc3ccc(NC(=O)C4CC4)cc3)n2)n[nH]1 [Tozasertib] (partner 0.1 µM)
In short: as §1

Bleomycin + Bortezomib = compound: CC1=C(N=C(N=C1N)[C@H](CC(=O)N)NC[C@@H](C(=O)N)N)C(=O)N[C@@H]([C@H](C2=CN=CN2)OC3C(C(C(C(O3)CO)O)O)OC4C(C(C(C(O4)CO)O)OC(=O)N)O)C(=O)N[C@H](C)[C@H]([C@H](C)C(=O)N[C@@H]([C@@H](C)O)C(=O)NCCC5=NC(=CS5)C6=NC(=CS6)C(=O)NCCC[S+](C)C)O [Bleomycin] + CC(C)C[C@H](NC(=O)[C@H](Cc1ccccc1)NC(=O)c1cnccn1)B(O)O [Bortezomib] (partner 0.002 µM); details: main component drawn
In short: as §1

With UMC-11 the relative viability (Bleomycin + Pemetrexed; first compound 0.01 µM) was 0.74, the relative viability (Bleomycin + Pemetrexed; first compound 0.03162 µM) was 0.756 and the relative viability (Bleomycin + Pemetrexed; first compound 0.1 µM) was 0.74. The relative viability (Bleomycin + Pemetrexed; first compound 0.3162 µM) was 0.598, the relative viability (Bleomycin + Pemetrexed; first compound 1 µM) was 0.414 and the relative viability (Bleomycin + Luminespib; first compound 0.01 µM) was 0.914. For the same cell line, the relative viability (Bleomycin + Luminespib; first compound 0.03162 µM) was 1.05, the relative viability (Bleomycin + Luminespib; first compound 0.1 µM) was 0.893 and the relative viability (Bleomycin + Luminespib; first compound 0.3162 µM) was 0.65. The relative viability (Bleomycin + Luminespib; first compound 1 µM) was 0.539, the relative viability (Etoposide + Tozasertib; first compound 0.01 µM) was 0.209 and the relative viability (Etoposide + Tozasertib; first compound 0.03162 µM) was 0.205. It also gave a relative viability (Etoposide + Tozasertib; first compound 0.1 µM) of 0.186, a relative viability (Etoposide + Tozasertib; first compound 0.3162 µM) of 0.206 and a relative viability (Etoposide + Tozasertib; first compound 1 µM) of 0.235. For the same cell line, the relative viability (Bleomycin + Bortezomib; first compound 0.01 µM) was 0.626, the relative viability (Bleomycin + Bortezomib; first compound 0.03162 µM) was 0.587 and the relative viability (Bleomycin + Bortezomib; first compound 0.1 µM) was 0.576. For the same cell line, the relative viability (Bleomycin + Bortezomib; first compound 0.3162 µM) was 0.477 and the relative viability (Bleomycin + Bortezomib; first compound 1 µM) was 0.304.
